From patent publication US8076488B2, “Bicyclic urea derivatives useful in the treatment of cancer and other disorders” (Bayer Healthcare LLC, priority 2003, dated 2011) come the findings set out here.

Counter-ions that a name gives are not always drawn.

T1 sequence (P04049 302-648): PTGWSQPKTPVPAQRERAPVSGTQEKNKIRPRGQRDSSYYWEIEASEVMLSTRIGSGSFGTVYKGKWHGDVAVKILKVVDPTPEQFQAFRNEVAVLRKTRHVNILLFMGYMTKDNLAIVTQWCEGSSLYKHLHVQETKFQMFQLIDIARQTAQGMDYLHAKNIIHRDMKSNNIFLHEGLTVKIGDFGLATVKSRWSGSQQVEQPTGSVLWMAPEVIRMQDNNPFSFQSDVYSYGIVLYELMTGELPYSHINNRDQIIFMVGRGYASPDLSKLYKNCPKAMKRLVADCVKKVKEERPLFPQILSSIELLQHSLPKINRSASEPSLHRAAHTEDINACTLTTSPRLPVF

This assay addresses T1, c-Raf kinase (Lck-activated c-Raf, Raf-1) (Homo sapiens, UniProt P04049).
T1 construct: GST-c-Raf (from amino acid 302 to amino acid 648); made in house; host or cells: Sf9 insect cells (baculovirus; co-infection with full-length Lck)
The experiment in a line: c-Raf (Raf-1) biochemical assay (radioactive filtermat assay, MEK-1 substrate). The note with it: at 1 micromolar compound; 5 μM ATP, 32° C., 1 hour. The protocol: Biological Tests c-Raf (Raf-1) Biochemical Assay Purification of Proteins Used in the Assay
The c-Raf biochemical assay was performed with a c-Raf enzyme that was activated (phosphorylated) by Lck kinase. Lck-activated c-Raf (Lck/c-Raf) was produced in Sf9 insect cells by co-infecting cells with baculoviruses expressing, under the control of the polyhedrin promoter, GST-c-Raf (from amino acid 302 to amino acid 648) and Lck (full-length). Both baculoviruses were used at the multiplicity of infection of 2.5 and the cells were harvested 48 hours post infection.
MEK-1 protein was produced in Sf9 insect cells by infecting cells with the baculovirus expressing GST-MEK-1 (full-length) fusion protein at the multiplicity of infection of 5 and harvesting the cells 48 hours post infection. Similar purification procedure was used for GST-c-Raf 302-648 and GST-MEK-1.
Transfected cells were suspended at 100 mg of wet cell biomass per mL in a buffer containing 10 mM sodium phosphate, 140 mM sodium chloride pH 7.3, 0.5% Triton X-100 and the protease inhibitor cocktail. The cells were disrupted with Polytron homogenizer and centrifuged 30,000 g for 30 minutes. The 30,000 g supernatant was applied onto GSH-Sepharose. The resin was washed with a buffer containing 50 mM Tris, pH 8.0, 150 mM NaCl and 0.01% Triton X-100. The GST-tagged proteins were eluted with a solution containing 100 mM Glutathione, 50 mM Tris, pH 8.0, 150 mM NaCl and 0.01% Triton X-100. The purified proteins were dialyzed into a buffer containing 20 mM Tris, pH 7.5, 150 mM NaCl and 20% Glycerol.
Biochemical Assay Protocol and Results
The compounds were serially diluted in DMSO using three-fold dilutions to stock concentrations ranging typically from 50 μM to 20 nM (final concentrations in the assay range from 1 μM to 0.4 nM). The c-Raf biochemical assay was performed as a radioactive filtermat assay in 96-well Costar polypropylene plates (Costar 3365). The plates were loaded with 75 μL solution containing 50 mM HEPES pH 7.5, 70 mM NaCl, 80 ng of Lck/c-Raf and 1 μg MEK-1. Subsequently, 2 μL of the serially diluted individual compounds were added to the reaction, prior to the addition of ATP. The reaction was initiated with 25 μL ATP solution containing 5 μM ATP and 0.3 μCi [33P]-ATP. The plates were sealed and incubated at 32° C. for 1 hour. The reaction was quenched with the addition of 50 μl of 4% Phosphoric Acid and harvested onto P30 filtermats (PerkinElmer) using a Wallac Tomtec Harvester. Filtermats were washed with 1% Phosphoric Acid first and deinonized H2O second. The filters were dried in a microwave, soaked in scintillation fluid and read in a Wallac 1205 Betaplate Counter (Wallac Inc., Atlanta, Ga., U.S.A.). The results were expressed as percent inhibition. % Inhibition=[[…]]×100 where • Tib=(counts per minute with inhibitor)−(background) • Ti=(counts per minute without inhibitor)−(background)
Broadly, the inhibition is the drop in the measured response relative to a control, in per cent. Take `COC(=O)c1cc(Oc2cccc(NC(=O)Nc3ccc4c(cnn4C)c3)c2)ccn1` [Example 2, Methyl 4-[3-({[(1-methyl-1H-indazol-5-yl)amino]carbonyl}amino)phenoxy]-pyridine-2-carboxylate]: the inhibition at 1 µM was over 40%. The figure for `CC(=O)c1cc(Oc2ccc(NC(=O)Nc3ccc4c(cnn4C)c3)cc2)ccn1` [Example 3, N-{4-[(2-acetylpyridin-4-yl)oxy]phenyl}-N′-(1-methyl-1H-indazol-5-yl)urea] is over 40%.

With `CNC(=O)c1cc(Oc2ccc(NC(=O)Nc3ccc4nc(C)oc4c3)cc2)ccn1` [Example 6], the inhibition at 1 µM was over 40%.

For `CNC(=O)c1cc(Oc2ccc(NC(=O)Nc3cccc4c3CCC4)cc2)ccn1` [Example 7], the inhibition at 1 µM is over 40%. Regarding `CNC(=O)c1cc(Oc2ccc(NC(=O)Nc3ccc4nn(C)cc4c3)cc2)ccn1` [Example 9], the inhibition at 1 µM is over 40%.

For `CNC(=O)c1cc(Oc2ccc(NC(=O)Nc3ccc4c(c3)N(C(C)=O)CC4)cc2)ccn1` [Example 10], the inhibition at 1 µM was over 40%. The figure for `CNC(=O)c1cc(Oc2ccc(NC(=O)Nc3nc4ccc(Cl)cc4s3)cc2)ccn1` [Example 11] is over 40%; for `CNC(=O)c1cc(Oc2ccc(NC(=O)Nc3nc4ccc(OC(F)(F)F)cc4s3)cc2)ccn1` [Example 12] it is over 40%; for `CNC(=O)c1cc(Oc2ccc(NC(=O)Nc3nc4ccc(F)cc4s3)cc2)ccn1` [Example 13] it is over 40%. As to `CNC(=O)c1cc(Oc2ccc(NC(=O)Nc3nc4ccc(OC)cc4s3)cc2)ccn1` [Example 14], the inhibition at 1 µM is over 40%. The figure for `CNC(=O)c1cc(Oc2ccc(NC(=O)Nc3ccc4[nH]c(C)cc4c3)cc2)ccn1` [Example 16] is over 40%; for `CNC(=O)c1cc(Oc2ccc(NC(=O)Nc3ccc4nccnc4c3)cc2)ccn1` [Example 17] it is over 40%; for `CNC(=O)c1cc(Oc2ccc(NC(=O)Nc3ccc4c(c3)OC(F)(F)O4)cc2)ccn1` [Example 20] it is over 40%. For `CNC(=O)c1cc(Oc2ccc(NC(=O)Nc3ccc4c(c3)CCC4=O)cc2)ccn1` [Example 22], the inhibition at 1 µM is over 40%.

As for `CNC(=O)c1cc(Oc2ccc(NC(=O)Nc3ccc4cnn(C)c4c3)cc2)ccn1` [Example 24], the inhibition at 1 µM is over 40%. Regarding `CNC(=O)c1cc(Oc2ccc(NC(=O)Nc3ccc4[nH]nnc4c3)cc2)ccn1` [Example 26], the inhibition at 1 µM is over 40%. The figure for `CNC(=O)c1cc(Oc2ccc(NC(=O)Nc3ccc4cn[nH]c4c3)cc2)ccn1` [Example 27] is over 40%; for `CNC(=O)c1cc(Oc2ccc(NC(=O)Nc3ccc4[nH]c(C(F)(F)F)nc4c3)cc2)ccn1` [Example 28] it is over 40%.

For `CCn1c(C)nc2cc(NC(=O)Nc3ccc(Oc4ccnc(C(=O)NC)c4)cc3)ccc21` [Example 29], the inhibition at 1 µM is over 40%. Consider `CNC(=O)c1cc(Oc2ccc(NC(=O)Nc3ccc4c(c3)CCN4S(C)(=O)=O)cc2)ccn1` [Example 31], for which the inhibition at 1 µM is over 40%. Then `CNC(=O)c1cc(Oc2cccc(NC(=O)Nc3ccc4[nH]nnc4c3)c2)ccn1` [Example 37], with over 40%; and `CCN(CC)CCn1ccc2cc(NC(=O)Nc3ccc(Oc4ccnc(C(=O)NC)c4)cc3F)ccc21` [Example 44], with over 40%. As to `CCN(CC)CCn1ncc2cc(NC(=O)Nc3ccc(Oc4ccnc(C(=O)NC)c4)cc3F)ccc21` [Example 45], the inhibition at 1 µM is over 40%. Regarding `CNC(=O)c1cc(Oc2ccc(NC(=O)Nc3ccc4c(c3)OC(F)(F)C(F)(F)O4)c(C(F)(F)F)c2)ccn1` [Example 64], the inhibition at 1 µM was over 40%. For the compound `CNC(=O)c1cc(Oc2ccc(NC(=O)Nc3ccc4sc(C)nc4c3)c(C(F)(F)F)c2)ccn1` [Example 65], the inhibition at 1 µM is over 40%. With `CNC(=O)c1cc(COc2ccc(NC(=O)Nc3ccc4c(cnn4C)c3)cc2)ccn1` [Example 88], the inhibition at 1 µM was over 40%.

For `CNC(=O)c1cc(COc2cccc(NC(=O)Nc3ccc4c(cnn4C)c3)c2)ccn1` [Example 89], the inhibition at 1 µM was over 40%. For `Cc1nc2cc(NC(=O)Nc3ccc(Oc4ccnc(C(N)=O)c4)cc3)ccc2s1` [Example 91], the inhibition at 1 µM was over 40%.

On to `NC(=O)c1cc(Oc2ccc(NC(=O)Nc3ccc4c(c3)CCC4)c(Cl)c2)ccn1` [Example 95], for which the inhibition at 1 µM is over 40%. The figure for `COC(=O)c1cc(Oc2ccc(NC(=O)Nc3ccc4c(cnn4C)c3)cc2)ccn1` [Example 98] is over 40%; for `COCCNC(=O)c1cc(Oc2ccc(NC(=O)Nc3ccc4c(cnn4C)c3)c(F)c2)ccn1` [Example 99] it is over 40%.

`CN(C)C(=O)CNC(=O)c1cc(Oc2ccc(NC(=O)Nc3ccc4c(cnn4C)c3)cc2)ccn1` [Example 100]: the inhibition at 1 µM was over 40%. For `CNC(=O)c1cc(Oc2ccc(NC(=O)Nc3nc4ccc([N+](=O)[O-])cc4s3)cc2)ccn1` [Example 102], the inhibition at 1 µM is over 40%. As to `CNC(=O)c1cc(Oc2ccc(NC(=O)Nc3nc4c(F)cc(F)cc4s3)cc2)ccn1` [Example 103], the inhibition at 1 µM is over 40%. As for `COC(=O)c1cc(Oc2cccc(NC(=O)Nc3ccc4c(c3)C(F)(F)OC(F)(F)O4)c2)ccn1` [Example 105, Methyl 4-[3-({[(2,2,4,4-tetrafluoro-4H-1,3-benzodioxin-6-yl)amino]-carbonyl}amino)phenoxy]pyridine-2-carboxylate], the inhibition at 1 µM was over 40%. Then `CNC(=O)c1cc(Oc2cccc(NC(=O)Nc3ccc4[nH]ncc4c3)c2)ccn1` [Example 108, 4-(3-{[(1H-indazol-5-ylamino)carbonyl]amino}phenoxy)-N-methylpyridine-2-carboxamide dihydrochloride], with over 40%. `CNC(=O)c1cc(Oc2ccc(NC(=O)Nc3ccc4c(c3)C(F)(F)OC(F)(F)O4)cc2Cl)ccn1` [Example 115]: the inhibition at 1 µM is over 40%. Consider `CNC(=O)c1cc(Oc2cccc(NC(=O)Nc3ccc4c(c3)C(F)(F)OC(F)(F)O4)c2)ccn1` [Example 117], for which the inhibition at 1 µM is over 40%. In the case of `COC(=O)c1cncc(Oc2ccc(NC(=O)Nc3ccc4c(c3)C(F)(F)OC(F)(F)O4)cc2)c1` [Example 122], the inhibition at 1 µM was over 40%. Regarding `CNC(=O)c1cc(Oc2ccc(NC(=O)Nc3cccc4c3OC(F)(F)C(F)(F)O4)cc2)ccn1` [Example 132], the inhibition at 1 µM is over 40%. Take `CNC(=O)c1cc(Oc2ccc(NC(=O)Nc3ccc4c(c3)OCO4)cc2)ccn1` [Example 135]: the inhibition at 1 µM is over 40%. As to `O=C(Nc1ccc(Oc2ccnc(C(=O)NCCCn3ccnc3)c2)cc1)Nc1ccc2c(c1)C(F)(F)OC(F)(F)O2` [Example 145, N-[3-(1H-imidazol-1-yl)propyl]-4-[4-({[(2,2,4,4-tetrafluoro-4H-1,3-benzodioxin-6-yl)amino]carbonyl}amino)phenoxy]pyridine-2-carboxamide], the inhibition at 1 µM was over 40%.

With `O=C(Nc1ccc(Oc2ccnc(C(=O)NCCN3CCCC3)c2)cc1)Nc1ccc2c(c1)C(F)(F)OC(F)(F)O2` [Example 146, N-(2-pyrrolidin-1-ylethyl)4-[4-({[(2,2,4,4-tetrafluoro-4H-1,3-benzodioxin-6-yl)-amino]carbonyl}amino)phenoxy]pyridine-2-carboxamide], the inhibition at 1 µM is over 40%. For the compound `Cn1ncc2cc(NC(=O)Nc3ccc(Oc4ccnc(C(=O)NC5CC5)c4)cc3)ccc21` [Example 147, N-cyclopropyl-4-[4-({[(1-methyl-1H-indazol-5-yl)amino]-carbonyl}amino)phenoxy]pyridine-2-carboxamide], the inhibition at 1 µM is over 40%. With `Cn1ncc2cc(NC(=O)Nc3cccc(Oc4ccnc(C(=O)NCCN5CCCCC5)c4)c3)ccc21` [Example 148, 4-[3-({[(1-methyl-1H-indazol-5-yl)amino]carbonyl}amino)phenoxy]-N-(2-piperidin-1-ylethyl)pyridine-2-carboxamide], the inhibition at 1 µM was over 40%.
